The record followed here is patent US6730704B2, “1-(aryloxy)propionoyl-2-arylsulfonyl hydrazines, process for preparation thereof and use thereof as hypoglycemic agents” (Council of Scientific & Industrial Research, priority 2002, dated 2004).

For experiment [1], the system named is Streptozotocin induced diabetic rats. In words: Hypoglycemic activity in Streptozotocin induced diabetic rats. Format: in vivo. The note with it: Streptozotocin (50 mg/kg i.v.) diabetic Wistar rats; Glibenclamide 1 mg/kg daily for 14 days; vs reading before drug administration. The protocol:
Hypoglycemic Activity in Streptozotocin Induced Diabetic Rats:
Wistar rats of either sex weighting 150-180 gms were used in this study and were divided into control, standard and test groups each consisting of 6 rats. Basal glucose levels were taken for all rats. Diabetes was induced by administering Streptozotocin in the dose of 50 mg/kg intravenously to the rats in all the groups. After a period of 48 hrs glucose levels were again measured and rats that have shown glucose levels of 400±20 mg/dl were selected. Glibenclamide (1 mg/kg) and the test compounds (50 mg/kg) were administered as 1% gum acacia suspension daily for a period of 14 days. At the end of 14 days after the last dose, blood glucose levels were again measured and the percent reduction in blood glucose was measured for all the rats in all the groups with respect to the initial reading before drug administration.

For experiment [2], the system named is normoglycemic rats. In words: Hypoglycemic activity in normal rats. The note with it: fasted normal Wistar rats; Glibenclamide 5 mg/kg per oral; reduction vs basal glucose, measured 1-6 hr, time of value not stated. The class given is in vivo. As to the method:
Hypoglycemic Activity in Normal Rats:
Wistar rats of either sex weighing 150-180 gms were fasted overnight and divided into control, standard and test groups each consisting of 6 rats. The standard drug, Glibenclamide, was administered in the dose of 5 mg/kg per oral to the rats. All test compounds were administered in the dose of 200 mg/kg per oral to the test groups. Both standard and test drugs were administered as 1% gum acacia suspension. Control group received vehicle only. Blood glucose levels were measured before drugs administration at 0 hr and at 1 hr, 2 hr, 4 hr and 6 hr after drugs administration. Percent reduction of blood glucose levels at different time intervals was calculated with reference to basal glucose levels. All the blood glucose estimations were done using GOD/POD method and were analyzed using Auto Blood Analyzer (Technicon RA-1000, Bayer Diagnostics, Ireland). The standard drug (Glibenclamide) has shown a percent inhibition of glucose 65.1 and all the test compounds (1 to 9 examples) have shown percent inhibition in range of 48.5 to 63.2 (FIG. 1)

Consider `COc1ccc(Cl)cc1C(=O)NCCc1ccc(S(=O)(=O)NC(=O)NC2CCCCC2)cc1` [Glibenclamide], for which, in experiment [1], the “hypoglycemic activity expressed as percent inhibition of blood glucose levels” value turned out to be 68.2%. Moreover, the “percent inhibition of glucose” value in experiment [2] is 65.1%.
